Values quoted from earlier work, collected in PMC10443619 (ACS chemical biology, 2023).

What was measured:
[1] = test system: tau
[2] = test system: tau; conditions: compared with YM-01
[3] = test system: tau; conditions: compared with MKT-077
[4] = not given; remark: listed apart in the source

Substance	half-life (t1/2) [min]	total tau in organotypic brain slices ([1]; rTg4510 mice)	potency to prevent cellular tau accumulation [2]	potency to prevent tau accumulation in HeLaC3 cells [3]	blood-brain permeability [4]	pathogenic tau in ex vivo brain slices ([1]; transgenic rTg4510 mice)
JG-98	37	reduced total tau	greater potency to prevent cellular tau accumulation than YM-01	–	–	–
YM-01	–	–	–	enhanced the potency to prevent tau accumulation	lacked detectable blood-brain permeability	reduced pathogenic tau
